Experimental data published in ChEMBL document CHEMBL4616670, “Phosphine Oxides from a Medicinal Chemist's Perspective: Physicochemical and in Vitro Parameters Relevant for Drug Discovery” (J Med Chem, 2020).
Converted amounts (≈) assume the structure as drawn.

Tests used:
physchem [1] = settings: pH 6.8 buffer
physchem [2] = settings: pH 6.8 buffer; remark: listed apart in the source
in vitro [3] = settings: human, Caco-2
Description: Permeability across apical to basolateral side in human Caco2 cells measured up to 2 hrs by LC-MS/MS analysis or scintillation counting method

in vitro [4] = settings: human, Caco-2; remark: listed apart in the source
Description: Efflux ratio of permeability in human Caco2 cells measured up to 2 hrs by LC-MS/MS analysis or scintillation counting method

[5] = 168 h
Description: Chemical stability of the compound in MeOH/NH3 solution at pH >10 assessed as compound decomposition measured after 7 days by UV-RP-HPLC analysis

physchem [6] = settings: octanol/water, pH 2
Description: Octanol/water partition coefficient, log D of the compound at pH 2

physchem [7] = settings: octanol/water, pH 11
Description: Octanol/water partition coefficient, log D of the compound at pH 11

in vitro [8] = settings: human, liver microsomes
Description: Half life in human liver microsomes at 1 uM incubated prior to NADPH addition by LC-MS/MS analysis

in vitro [9] = settings: human, liver microsomes; remark: listed apart in the source
Description: Stability in human liver microsomes at 1 uM incubated prior to NADPH addition by LC-MS/MS analysis relative to hepatic blood flow

physchem [10] = settings: MeOH/HCl solution
Description: Chemical stability of the compound in MeOH/HCl solution at pH <1 assessed as compound decomposition measured after 7 days by UV-RP-HPLC analysis

[11] = Basic dissociation constant, pKb of the compound by UV absorption spectra analysis or potentiometric titration technique; assay type: physicochemical

Compound	solubility thermodynamic at 24 h (physchem [1]) [µg/mL]	solubility thermodynamic at 24 h (physchem [2]) [µg/mL]	Papp A→B at 2 h (in vitro [3]) [×10⁻⁶ cm/s]	efflux ratio at 2 h (in vitro [4])	Drug degradation [5] [%]	logD (physchem [6])	logD (physchem [7])	half-life at 1 µM (in vitro [8]) [h]	hepatic extraction ratio at 1 µM (in vitro [9])	degraded at 168 h (physchem [10]) [%]	pKb [11]
CNS(=O)(=O)c1ccc(C(F)(F)F)cc1	> 49	900 (≈ 3760 µM)	36	0.9							
O=P1(c2ccc(C(F)(F)F)cc2)CCC1	> 53	24500 (≈ 105000 µM)	78	0.8	< 10	1.8	1.6	> 2.17	< 0.23	< 10	
NC(=O)c1ccc(C(F)(F)F)cc1	> 44	300 (≈ 1590 µM)	68	1		1.5					
O=P1(c2ccc(C(F)(F)F)cc2)CCCCC1	> 66	7700 (≈ 29400 µM)	49	1.1	< 10	2.4	2	> 2.17	< 0.23	< 10	
COP(=O)(OC)c1ccc(C(F)(F)F)cc1	50 (≈ 197 µM)	10100 (≈ 39700 µM)	85	0.5	< 10	2.5	2.2	> 2.17	< 0.23	< 10	
O=S1(c2ccc(C(F)(F)F)cc2)=NCCCC1 (stereo unspecified)	> 59	4700 (≈ 17900 µM)	84	0.7		0.1	1.8				3.8
C[S+]([O-])c1ccc(C(F)(F)F)cc1 (stereo unspecified)	> 46	11100 (≈ 53300 µM)				1.7	1.4				
CS(=O)(=O)c1ccc(C(F)(F)F)cc1	> 47	300 (≈ 1340 µM)									
CCOP(=O)(OCC)c1ccc(C(F)(F)F)cc1	> 61	1300 (≈ 4610 µM)	95	0.6	< 10	3.4	3.2	> 2.17	< 0.23	< 10	
CC(C)P(=O)(c1ccc(C(F)(F)F)cc1)C(C)C	> 61	22200 (≈ 79800 µM)	110	0.5	< 10	3.1	2.8	> 2.17	< 0.23	< 10	
O=P1(c2ccc(C(F)(F)F)cc2)CCOCC1	> 65	> 30000	65	0.7	< 10	1.4	1.1	> 2.17	< 0.23	< 10	
CCOP(C)(=O)c1ccc(C(F)(F)F)cc1 (stereo unspecified)			69	1		2.5	2.3	> 2.17	< 0.23		
CCOP(C)(=O)c1ccncc1 (stereo unspecified)	> 45	> 30000	54	0.6		-1.1	-0.7	> 2.17	< 0.23		
CCP(=O)(CC)c1ccc(C(F)(F)F)cc1	> 60	22500 (≈ 89900 µM)	88	0.7	< 10	2.3	2	> 2.17	< 0.23	< 10	
CC(C)(C)NC(=O)c1ccc(C(F)(F)F)cc1	14 (≈ 57.1 µM)	10 (≈ 40.8 µM)	56	0.7		3.8	3.7				
Cc1ccc(NC(=O)c2ccc(C(N)=O)cc2)cc1Nc1nccc(-c2cccnc2)n1	< 1		3	8.1		0.4	1.5	1.95	0.25		
CCP(=O)(CC)c1ccncc1	> 46	11600 (≈ 63300 µM)	19	0.6		< -1.8	-1	> 2.17	< 0.23		
NS(=O)(=O)c1ccc(C(F)(F)F)cc1	> 48	800 (≈ 3550 µM)	83	0.6							
